# Legend:
# interleukin-1-beta = settings: cited from earlier work
# hyperlipidemic rabbits = settings: cholesterol-rich diet; cited from earlier work
# [1] = test system: men with moderately elevated cholesterol who also suffered from moderate to high hypertension; assay: 16-week study of fish oil (EPA/DHA) with or without allicin, oleuropein or Policosanol in eight treatment groups; type: in vivo, human; settings: after sixteen weeks of daily treatment
# Procedure: Eighty men with moderately elevated cholesterol who also suffered from moderate to high hypertension, were assigned to one of eight treatment groups, and followed for 16 weeks. The EPA and DHA administered was from fish oil and in free fatty acid form containing 3 grams of EPA and 2 grams of DHA, administered daily. Group one received fish oil alone. Group two received the same amount of fish oil with 5 mg allicin dissolved in the fish oil. Group three received the same amount of fish oil with 100 mg oleuropein dissolved therein. Group four received the same amount of fish oil with 10 mg of Policosanol dissolved therein. Group five received soft gelatin capsules with sunflower oil rather than fish oil. Group six received 5 mg of allicin dissolved in sunflower oil. Group seven received 100 mg oleuropein dissolved in sunflower oil. Group eight received Policosanol dissolved in sunflower oil. After sixteen weeks of treatment, the results were as follows: • 1. Group one registered 5% lowering of serum triglycerides. There was no change in HDL cholesterol and an 8% increase in LDL. Systolic blood pressure dropped by average of 3% and diastolic blood pressure dropped by average of 2%. • 2. Group two registered a 30% lowering of triglycerides, 12% decrease in LDL, and 8% increase in HDL. Both systolic and diastolic blood pressure dropped by an average of 10% • 3. Group three registered a 25% lowering of serum triglycerides, 10% decrease of LDL, and 10% increase in HDL. Systolic pressure dropped by average of 12% and diastolic pressure dropped by average of 10% • 4. Group four registered 20% lowering of serum triglycerides, 12% decrease of LDL, and 8% increase in HDL. Systolic and diastolic pressure dropped by average of 10%. • 5. Group five had no change in any of the parameters tested. • 6. Group six registered 3% lowering of serum triglycerides, 6% lowering of LDL and 2% increase of HDL. Sistolic and diastolic pressure dropped by average of 5% • 7. […] Systolic blood pressure dropped by average of 7% and diastolic pressure dropped by average of 5%. • 8. Group eight registered 10% lowering of serum triglycerids, 8% lowering of LDL, and 5% increase of HDL.
# [2] = compared with oleuropein, tyrosol, hydroxytyrosol; cited from earlier work
Compound,concentration of interleukin-1-beta (interleukin-1-beta),diastolic blood pressure dropped by average of [1],lowering of serum triglycerides [1],systolic blood pressure dropped by average of [1],also measured
O=C(O)/C=C/c1ccc(O)c(O)c1 [carreic acid],decreased,,,,
C=CCS[S+]([O-])CC=C (stereo not drawn) [allicin],,,,,effect on the serum lipid profile (hyperlipidemic rabbits): beneficial effect
"C/C=C1/[C@H](O[C@@H]2O[C@H](CO)[C@@H](O)[C@H](O)[C@H]2O)OC=C(C(=O)OC)[C@H]1CC(=O)OCCc1ccc(O)c(O)c1 [Group seven, oleuropein]",,5%,12%,7%,
C/C=C1/[C@H](O[C@@H]2O[C@H](CO)[C@@H](O)[C@H](O)[C@H]2O)OC=C(C(=O)OC)[C@H]1CC(=O)OCCc1ccc(O)c(O)c1 [oleuropein glycoside],decreased,,,,
COc1cc(CCO)ccc1O [homovanillic alcohol],,,,,antioxidant potency [2]: significantly more potent antioxidant than the other phenolics
"C=CCS[S+]([O-])CC=C (stereo not drawn) [Group six, allicin]",,5%,3%,5%,decrease in LDL [1]: 6%; increase in HDL [1]: 2%

# Source: patent US20070020340A1, “Fish oil products for reducing cholesterol, low density lipoprotein, and hypertension” (priority 2005, published 2007)
